TGI and GI50 data for 20 compounds are collected here from PubChem BioAssay (NCI).

What all share (assay): NCI-60 cell line screen, 48 h
The subject of assay [1] is HOP-92 NSCLC.
The test system of assay [2] is HS 578T breast.
Assay [3] concerns MALME-3M melanoma.
The subject of assay [4] is MOLT-4 leukemia.
Assay [5] has as its system NCI-H522 lung.
Assay [6] deals with OVCAR-3 ovarian.
For assay [7], the system named is SF-295 CNS.
The subject of assay [8] is SK-MEL-2 melanoma.
For assay [9], the system named is T-47D breast.
Assay [10] concerns SK-MEL-28 melanoma.

Several values for one entry are separate records, joined by “and”; a condition that tells them apart may be missing. Equal values may be shown once.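 Cultured in 96-well plates, cells were exposed to test compound for 48 hours across five concentrations. Here, GI50 denotes the concentration required for 50% inhibition of growth. TGI: total growth inhibition.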 Where only a bound is given, the exact number is not on record here.

Regarding `C/C1=C/C2=CC(C)C[C@@H]2C(=O)[C@]2(C)C(=O)CC(C)(C)[C@H]2CC1=O` (stereo partly specified), the TGI in assay [1], in assay [2], in assay [3], in [4], in assay [5] and in assay [6] was above 50 µM in each case. In addition, the TGI in [7], in assay [8] and in assay [9] was above 50 µM in each case.
Consider `O=C(O)CCC(=O)c1ccc2ccc3cccc4ccc1c2c34`, for which the TGI in assay [1], in assay [2], in assay [3], in assay [4], in assay [5] and in [6] was above 100 µM each time. Further, the TGI in assay [7], in [8], in assay [10] and in assay [9] was above 100 µM each time.
Take `Cn1nnnc1N/N=C/c1ccccc1`: the TGI in assay [1], in assay [2], in assay [4], in assay [5], in assay [6] and in assay [7] was above 10 µM in each case. Also, the TGI in assay [8], in assay [10] and in assay [9] was above 10 µM in each case.
`O=C(CF)N(O)c1ccc(/C=C/c2ccccc2)cc1`: the GI50 in assay [1] is 3.97 µM; in assay [2], 24.1 µM; in assay [3] it was 24.6 µM; in assay [4], 2.72 µM; in assay [5], 12.8 µM; in [6], 3.28 µM. In addition, the GI50 in assay [7] was 1.74 µM; in assay [8] it was 27.1 µM; in [10], above 40.4 µM; in assay [9], 1.06 µM. For the same compound, the TGI in [1] is 35.7 µM; in assay [2], above 91.5 µM; in assay [3] it was above 100 µM; in assay [4], above 100 µM; in assay [5] it was above 100 µM; in assay [6], 19.7 µM. The TGI is 11.4 µM in assay [7], above 100 µM in [8], above 100 µM in assay [10] and above 34.1 µM in [9].
For the compound `COc1cnc2c(c1)C(=O)c1c-2n(CCCN2CCC(O)CC2)c(=O)c2cc(F)ccc12`, the GI50 in assay [1] is 0.31 µM; in [2], 1.67 µM; in assay [3], 0.298 µM; in assay [4], 0.0445 µM; in assay [5] it was 0.0584 µM; in [6] it was 0.254 µM. Further, the GI50 in assay [8] was 0.61 µM; in assay [10], 1.39 µM; in [9], 0.0996 µM. Also, the TGI in [1] turned out to be 3.22 µM; in assay [2], 52.4 µM; in assay [3] it was 1.2 µM; in [4], 0.337 µM; in assay [5], 0.479 µM; in [6], 1.18 µM. For the same compound, the TGI in assay [8] was 2.86 µM; in assay [10], 9.8 µM; in assay [9], 0.86 µM.
In the case of `CCN1C(NN)=NS(=O)(=O)c2ccccc21`, the TGI in [1], in assay [2], in assay [4], in assay [5], in assay [6] and in [7] was above 100 µM each time. The TGI in assay [8], in assay [10] and in assay [9] was above 100 µM throughout.
Consider `COc1ccc2c(c1)C(=O)C(=O)c1cc(O)c(OC)c(OC)c1-2`, for which the GI50 in [1] is 1.7 µM; in assay [2], 2.79 µM; in assay [3] it was 1.22 µM; in assay [4], 2.38 µM; in [5], 1.92 µM; in assay [6] it was 1.65 µM. For the same compound, the GI50 was 1.77 µM in assay [7], 1.95 µM in [8], 1.88 µM in [10] and 1.75 µM in [9]. In addition, the TGI is 1.79 µM and 3.19 µM in assay [1]; 2.78 µM and 8.57 µM in assay [2]; 1.53 µM and 2.46 µM in assay [3]; 0.746 µM and 5.74 µM in [4]; 1.74 µM and 3.55 µM in [5]; 3.63 µM and 3.11 µM in assay [6]. The TGI was 1.65 µM and 3.15 µM in assay [7]; 1.62 µM and 3.42 µM in [8]; 1.67 µM and 3.58 µM in assay [10]; 2.81 µM and 3.13 µM in [9].
In the case of `Oc1c(CN2CCCC2)cc(COCc2ccc(Br)cc2)c2cccnc12`, the GI50 in assay [1] was 1.93 µM; in assay [2], 2.82 µM; in [3], 1.44 µM; in assay [4], 0.495 µM; in assay [5], 0.297 µM; in [6], 0.413 µM. Besides, the GI50 in assay [7] was 1.19 µM; in assay [8], 1.47 µM; in assay [10], 1.16 µM; in assay [9], 0.501 µM. Also, the TGI in assay [1] worked out at 7.56 µM; in assay [2] it was 17.1 µM; in [3], 5.18 µM; in assay [4], 2.67 µM; in assay [5], 1.17 µM; in assay [6] it was 1.87 µM. For the same compound, the TGI in [7] was 3.98 µM; in [8] it was 3.97 µM; in [10] it was 6.31 µM; in [9], 3.08 µM.
On to `Cc1ccc(C)c(NC(=O)NCc2ccc(Cl)cc2)c1`, for which the TGI was 63.5 µM in [1]; above 100 µM in assay [2]; above 87.9 µM in [3]; above 36.2 µM in assay [4]; 97.3 µM in [5]; above 100 µM in [6]. Moreover, the TGI in assay [7], in [8], in assay [10] and in assay [9] was above 100 µM in each case.
Take `Cc1ccc(Nc2n[nH]c(=S)s2)cc1`: the TGI in assay [1], in assay [2], in [3], in assay [4], in assay [6] and in [7] was above 100 µM throughout. Besides, the TGI in [10] and in [9] was above 100 µM in each case.
Take `CN(C)CCNC(=O)Cn1cc([N+](=O)[O-])c(=O)c2ccccc21`: the TGI in assay [2], in [3], in [4], in [5], in assay [6] and in [7] was above 100 µM throughout. The TGI in assay [8], in assay [10] and in [9] was above 100 µM each time.
Take `OCC1OC(OCC(O)C(O)C(O)C(/C=N/Nc2ccccc2)=N/Nc2ccccc2)C(O)C(O)C1O` (stereo unspecified): the TGI in assay [1], in [2], in [3], in assay [4], in assay [6] and in assay [7] was above 100 µM each time. Moreover, the TGI was above 100 µM in [10] and 56.9 µM in assay [9].
With `c1ccc(-c2cc(C3CO3)c3ccccc3n2)cc1` (stereo unspecified), the TGI in assay [1] is 39.2 µM; in assay [2] it was 83.9 µM; in [4] it was 49.7 µM; in assay [5], 14.6 µM; in [6] it was 33.7 µM; in assay [7], above 100 µM. Besides, the TGI in assay [8] is 34.6 µM; in [10], above 100 µM; in assay [9] it was 65.8 µM.
On to `COc1cccc2c1-c1c(c3ccc([N+](=O)[O-])cc3c(=O)n1CCCCl)C2=O`, for which the GI50 in assay [2] was 25.2 µM; in [3], 7.06 µM; in assay [4] it was 2.23 µM; in assay [5] it was 0.685 µM; in assay [6] it was above 50 µM; in [7], 1.82 µM. Besides, the values for the GI50 in assay [8], in [10] and in assay [9] were 48.8 µM, above 50 µM and above 50 µM, respectively. For the same compound, the TGI in [2], in assay [3], in assay [4], in assay [5], in [6] and in assay [7] was above 50 µM throughout. Also, the TGI in assay [8], in [10] and in assay [9] was above 50 µM in each case.
In the case of `O=C1C2=Nc3ccccc3C(O)N2c2ccccc21` (stereo unspecified), the TGI in assay [1] is above 100 µM; in assay [2], above 100 µM; in [3] it was 29.8 µM; in assay [4], above 100 µM; in assay [5], 32.6 µM; in assay [6], 56.3 µM. The TGI in assay [7] was above 100 µM; in assay [10], above 68.7 µM; in [9], above 100 µM.
`C[C@@H]1CC[C@@H]2[C@@H]1[C@H](OC(=O)/C=C/c1ccccc1)[C@]1(C3CCCCC3)C[C@@H](NC(=O)CO)[C@@]2(C)O1`: the GI50 in assay [2] was 2.79 µM; in [3], 16.3 µM; in assay [4], 18.5 µM; in assay [5], 17.1 µM; in [6], 17.3 µM; in [7], 14.9 µM. In addition, the GI50 in [8] was 16.8 µM; in [10] it was 16.9 µM; in assay [9] it was 14.3 µM. The TGI was determined as 9.21 µM in assay [2]; 33 µM in assay [3]; 39.3 µM in assay [4]; 33.6 µM in assay [5]; 34.2 µM in assay [6]; 28.4 µM in [7]. Besides, the TGI was determined as 32.8 µM in assay [8], 33 µM in assay [10] and 30.8 µM in assay [9].
For the compound `Cc1cc(C2=NNC(=O)Cc3cc4c(cc32)OCCO4)cc(C)c1N`, the GI50 in assay [1] is 3.54 µM; in assay [2] it was 3.05 µM; in [4], 3.97 µM; in assay [5], 1.24 µM; in [6], 0.892 µM; in [7] it was 0.47 µM. For the same compound, the GI50 in [8] is 3.42 µM; in [10] it was 5.37 µM; in assay [9], 4.41 µM. Moreover, the TGI in assay [1] is above 100 µM; in assay [2], above 100 µM; in assay [4], above 100 µM; in assay [5] it was 6.19 µM; in assay [6] it was 5.6 µM; in assay [7], 2.87 µM. Besides, the TGI in assay [8], in assay [10] and in assay [9] was above 100 µM throughout.
As to `CO/N=C(\C)c1cccc(Nc2cc(-c3ccccc3)nc3c(O)cccc23)c1`, the GI50 in assay [1] was 5.28 µM; in assay [2], 5.31 µM; in assay [3], 12.5 µM; in assay [5], 2.78 µM; in [6] it was 2.34 µM; in [7], 2.17 µM. Moreover, the GI50 in [8] is 5.76 µM; in assay [10], 12.4 µM; in assay [9], 4.32 µM. Further, the TGI was 28.9 µM in assay [1]; 38.8 µM in assay [2]; 35.4 µM in assay [3]; 6.95 µM in assay [5]; 7.12 µM in assay [6]; 5.55 µM in assay [7]. In addition, the figures for the TGI in assay [8], in assay [10] and in [9] were above 100 µM, 43.5 µM and 26.7 µM, respectively.
As for `COc1ccc(-c2nn(-c3cccc(NC(=O)c4ccc5c(c4)OCCO5)c3)cc2-c2ccncc2)cc1Cl`, the GI50 in [1] is 0.335 µM; in assay [2], 1.61 µM; in [3] it was 0.833 µM; in assay [4] it was 2.46 µM; in assay [5] it was 0.454 µM; in assay [7] it was 1.56 µM. Besides, the GI50 in assay [8] was 2.36 µM; in [10], 1.9 µM; in assay [9] it was 2.96 µM. The TGI in [1] stood at 4.99 µM; in assay [2], 8.13 µM; in [3], 6.72 µM; in [4] it was 25.7 µM; in [5], 2.59 µM; in assay [7], 4.43 µM. Also, the TGI turned out to be 7.15 µM in assay [8], 11.6 µM in assay [10] and 47.7 µM in [9].
Turning to `CCOC(=O)c1c2c(n(Cc3ccccc3)c1C)-c1ccccc1C(=O)C2=O`, the GI50 in assay [1] is 6.54 µM; in [2], 2.93 µM; in assay [3], 13.7 µM; in assay [5], 14.8 µM; in [6], 12.2 µM; in assay [7] it was 19.6 µM. Besides, the GI50 was 18.4 µM in assay [8], 16.4 µM in assay [10] and 13.2 µM in assay [9]. In addition, the TGI in assay [1] was found to be 21.6 µM; in assay [2], 12.4 µM; in assay [3] it was 29 µM; in assay [5], 35.5 µM; in assay [6], 29.3 µM; in [7], 48.4 µM. Further, the TGI was found to be 40.8 µM in assay [8], 41.4 µM in assay [10] and 31.8 µM in [9].
